{
  "source": "ChEMBL document CHEMBL5678811",
  "about": "(Invest New Drugs, 2014)",
  "key": {"[1]": {"tested_on": "COLO 205", "assay": "In vivo inhibition of CDK4/CDK6 in human COLO 205 cells xenografted CD1 nu/nu mouse assessed as reduction in TopoIIalpha expression at 12.5 to 50 mg/kg, po administered via gavage measured after 24 hrs by Western blot analysis", "assay_type": "functional, organism-based", "settings": "dose 12.5-50 mg/kg"}, "[2]": {"tested_on": "MV4-11", "assay": "Cell cycle arrest in human MV4-11 cells assessed as accumulation of cells at G1-phase at 2.5 uM measured after 24 hrs by propidium iodide staining based flow cytometry (reference value: 61.42%)", "assay_type": "functional"}, "[3]": {"target": "T1, Dual specificity tyrosine-phosphorylation-regulated kinase 2 (Homo sapiens) (UniProt Q92630)", "T1 sequence (whole entry)": "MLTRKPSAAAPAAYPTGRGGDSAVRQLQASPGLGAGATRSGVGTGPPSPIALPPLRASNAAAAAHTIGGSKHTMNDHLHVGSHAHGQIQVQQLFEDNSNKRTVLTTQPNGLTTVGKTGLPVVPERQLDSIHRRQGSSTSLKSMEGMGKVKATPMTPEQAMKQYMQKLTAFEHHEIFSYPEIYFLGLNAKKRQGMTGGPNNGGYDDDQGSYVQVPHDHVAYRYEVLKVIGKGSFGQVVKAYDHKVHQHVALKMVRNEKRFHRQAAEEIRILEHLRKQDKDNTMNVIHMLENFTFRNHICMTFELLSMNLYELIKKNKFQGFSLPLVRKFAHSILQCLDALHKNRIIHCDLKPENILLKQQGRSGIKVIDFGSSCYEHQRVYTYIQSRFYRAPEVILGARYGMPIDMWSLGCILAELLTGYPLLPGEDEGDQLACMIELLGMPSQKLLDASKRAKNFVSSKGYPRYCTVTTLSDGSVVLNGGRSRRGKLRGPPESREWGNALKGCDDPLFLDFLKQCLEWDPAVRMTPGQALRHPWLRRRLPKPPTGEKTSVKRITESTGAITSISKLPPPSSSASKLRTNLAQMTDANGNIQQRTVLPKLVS", "settings": "Sf21, dose 200.0 nM", "description": "Inhibition of recombinant human full-length 6His-tagged DYRK2 expressed in baculovirus infected Sf21 insect cells at 200 nM using casein as substrate relative to control"}, "[4]": {"tested_on": "MV4-11", "assay": "Cell cycle arrest in human MV4-11 cells assessed as accumulation of cells at G1-phase at 0.16 uM measured after 24 hrs by propidium iodide staining based flow cytometry (reference value: 61.42%)", "assay_type": "functional"}, "[5]": {"assay": "Toxicity in human COLO 205 cells xenografted CD1 nu/nu mouse assessed as change in ileum histology at 50 mg/kg, po administered daily via gavage for 2 cycles of 3 weeks on/1 week rest and measured on day 41 to 69 by histopathological analysis", "assay_type": "organism-based", "settings": "in vivo, time 41-69 day"}, "[6]": {"tested_on": "COLO 205", "assay": "In vivo inhibition of CDK4/CDK6 in human COLO 205 cells xenografted CD1 nu/nu mouse assessed as reduction in pHH3 expression at 12.5 to 50 mg/kg, po administered via gavage measured after 24 hrs by Western blot analysis", "assay_type": "functional, organism-based", "settings": "dose 12.5-50 mg/kg"}, "[7]": {"tested_on": "COLO 205", "settings": "Mus musculus, CD1, dose 50.0 mg/kg, route po"}, "[8]": {"tested_on": "MV4-11", "assay": "Cell cycle arrest in human MV4-11 cells assessed as accumulation of cells at G2/M-phase at 1.25 uM measured after 24 hrs by propidium iodide staining based flow cytometry (reference value: 15.23%)", "assay_type": "functional"}, "[9]": {"assay": "Toxicity in human COLO 205 cells xenografted CD1 nu/nu mouse at 25 to 100 mg/kg, po administered once daily via gavage for 21 days", "assay_type": "organism-based", "settings": "in vivo, dose 25-100 mg/kg, time 21 day"}, "[10]": {"tested_on": "COLO 205", "settings": "Mus musculus, CD1, dose 50.0 mg/kg, route po", "remark": "listed apart in the source"}, "[11]": {"assay": "Toxicity in human COLO 205 cells xenografted CD1 nu/nu mouse assessed as change in jejunum histology at 50 mg/kg, po administered daily via gavage for 56 days and measured on day 41 to 69 by histopathological analysis", "assay_type": "organism-based", "settings": "in vivo, 1344 h, time 41-69 day"}, "[12]": {"assay": "Toxicity in human COLO 205 cells xenografted CD1 nu/nu mouse assessed as decrease in lymphocyte count at 50 mg/kg, po administered daily via gavage for 2 cycles of 3 weeks on/1 week rest and measured on day 41 to 69 by hematological analysis", "assay_type": "organism-based", "settings": "in vivo, time 41-69 day"}, "[13]": {"tested_on": "COLO 205", "settings": "Mus musculus, CD1, dose 25-50 mg/kg, route po"}, "[14]": {"tested_on": "COLO 205", "settings": "Mus musculus, CD1, dose 100.0 mg/kg, route po, time 21.0 day"}, "[15]": {"species": "Mus musculus", "settings": "CD1, dose 50.0 mg/kg, route po, time 22.0 day"}, "[16]": {"tested_on": "MDA-MB-231", "assay": "Cell cycle arrest in human MDA-MB-231 cells assessed as accumulation of cells at G2/M-phase at 2.5 uM measured after 24 hrs by propidium iodide staining based flow cytometry (reference value: 11.46%)", "assay_type": "functional"}, "[17]": {"assay": "Toxicity in human Calu-6 cells xenografted CD1 nu/nu mouse assessed as body weight loss at 50 mg/kg, po administered once daily via gavage for 12 days followed by gemcitabine addition for 4 days and measured twice per week during compound dosing", "assay_type": "organism-based", "settings": "in vivo, 384 h, time 16 day"}, "[18]": {"tested_on": "Calu-6", "settings": "Homo sapiens, dose 50.0 mg/kg, route po, time 21.0 day"}, "[19]": {"tested_on": "MV4-11", "assay": "Cell cycle arrest in human MV4-11 cells assessed as accumulation of cells at G2/M-phase at 0.04 uM measured after 24 hrs by propidium iodide staining based flow cytometry (reference value: 15.23%)", "assay_type": "functional"}, "[20]": {"assay": "Toxicity in human COLO 205 cells xenografted CD1 nu/nu mouse assessed as change in cecum histology at 50 mg/kg, po administered daily via gavage for 56 days and measured on day 41 to 69 by histopathological analysis", "assay_type": "organism-based", "settings": "in vivo, 1344 h, time 41-69 day"}, "[21]": {"tested_on": "COLO 205", "settings": "Mus musculus, CD1, dose 50.0 mg/kg, route po", "remark": "listed apart in the source"}, "[22]": {"tested_on": "COLO 205", "settings": "Homo sapiens, dose 50.0 mg/kg, route po, time > 3.0 weeks", "description": "Antitumor activity against human COLO 205 cells xenografted in CD1 nu/nu mouse assessed as tumor growth inhibition at 50 mg/kg, po administered daily via gavage for 2 cycles of over 3 weeks on/1 week rest"}, "[23]": {"tested_on": "COLO 205", "assay": "Antitumor activity against human COLO 205 cells xenografted in CD1 nu/nu mouse assessed as tumor growth inhibition at 25 to 100 mg/kg, po administered once daily via gavage for 21 days measured twice per week during compound dosing", "assay_type": "functional, organism-based", "settings": "dose 25-100 mg/kg, time 21.0 day"}, "[24]": {"tested_on": "MDA-MB-231", "assay": "Cell cycle arrest in human MDA-MB-231 cells assessed as accumulation of cells at S-phase at 2.5 uM measured after 24 hrs by propidium iodide staining based flow cytometry (reference value: 38.27%)", "assay_type": "functional"}, "[25]": {"tested_on": "COLO 205", "settings": "Mus musculus, CD1, dose 50.0 mg/kg, route po, time lower 1.0 hrs, time upper […], TDE = time-dependent effect"}, "[26]": {"tested_on": "MV4-11", "assay": "Cell cycle arrest in human MV4-11 cells assessed as accumulation of cells at G2/M-phase at 0.08 uM measured after 24 hrs by propidium iodide staining based flow cytometry (reference value: 15.23%)", "assay_type": "functional"}},
  "note": "Activity calls are given as the source filed them. The calls are words filed in the database; no cut-off is given here.",
  "data": [
    {"smiles": "CCN1CCN(Cc2ccc(Nc3ncc(F)c(-c4cc(F)c5nc(C)n(C(C)C)c5c4)n3)nc2)CC1", "note": "[ABEMACICLIB]", "values": [
      {"measurement": "inhibition", "setting": "[1]", "result": "Active"},
      {"measurement": "Activity", "setting": "[2]", "result": 94.06, "unit": "%"},
      {"measurement": "inhibition", "setting": "[3]", "result": "> 90", "unit": "%"},
      {"measurement": "Activity", "setting": "[4]", "result": 92.68, "unit": "%"},
      {"measurement": "Activity", "setting": "[5]", "result": "Non-Toxic"},
      {"measurement": "inhibition", "setting": "[6]", "result": "Active"},
      {"measurement": "inhibition", "setting": "[7]", "result": "Active"},
      {"measurement": "Activity", "setting": "[8]", "result": 1.84, "unit": "%"},
      {"measurement": "Activity", "setting": "[9]", "result": "Non-Toxic"},
      {"measurement": "inhibition", "setting": "[10]", "result": "inactive"},
      {"measurement": "Activity", "setting": "[11]", "result": "Non-Toxic"},
      {"measurement": "Activity", "setting": "[12]", "result": "Non-Toxic"},
      {"measurement": "inhibition", "setting": "[13]", "result": "Dose-Dependent Effect"},
      {"measurement": "inhibition", "setting": "[14]", "result": "Active"},
      {"measurement": "inhibition", "setting": "[15]", "result": "inactive"},
      {"measurement": "Activity", "setting": "[16]", "result": 5.77, "unit": "%"},
      {"measurement": "Activity", "setting": "[17]", "result": "Non-Toxic"},
      {"measurement": "TGI", "setting": "[18]", "result": "Active"},
      {"measurement": "Activity", "setting": "[19]", "result": 6.21, "unit": "%"},
      {"measurement": "Activity", "setting": "[20]", "result": "Non-Toxic"},
      {"measurement": "inhibition", "setting": "[21]", "result": "inactive"},
      {"measurement": "TGI", "setting": "[22]", "result": "Active"},
      {"measurement": "TGI", "setting": "[23]", "result": "Active"},
      {"measurement": "Activity", "setting": "[24]", "result": 8.19, "unit": "%"},
      {"measurement": "inhibition", "setting": "[25]", "result": "Tde"},
      {"measurement": "Activity", "setting": "[26]", "result": 1.97, "unit": "%"}
    ]}
  ]
}
